How the values were obtained:
Type in all cases: cell-based, human
BCC cells [1] = assay: Sub-G1 region analysis (PI, flow cytometry); details: 4 μM for 4 hours, 1 J/cm^2 UVA, 24 h after irradiation
Description: BCC cells were treated with compounds at 4 μM and 1 J/cm^2 UVA. Twenty-four hours after irradiation, cells were harvested by trypsinization and centrifugation. Cell pellets were resuspended in 50% cold ethanol and fixed at −20° C. After fixation, cells were washed once with cold PBS and incubated in 0.5 mL of PBS containing 100 μg/mL RNase A for 20 min at 37° C. Cells were harvested by centrifugation at 400 g for 5 min, and 250 μL of PBS containing 50 μg/mL propidium iodide (PI) was added to the pellet. Thirty minutes later, the DNA contents of 10,000 events were measured by FACSscan flow cytometer (Elite ESP, Beckman Coulter, Brea, Calif.). Histograms were analyzed using Windows Multiple Document Interface software (WinMDI). Cells with DNA content less than that in untreated cells in G0/G1 were considered apoptotic. To investigate the effects of compounds 6 on cell cycle progression of BCC cells, the DNA content of cell nuclei was measured by flow cytometric analysis. […] BCC cells were treated with 4 μM agents for 4 hours followed by 1 J/cm^2 UVA irradiation. Twenty-four hours after irradiation, the PI reagent was used. Approximately 10000 cells from each group were analyzed with the FACScan flow cytometer. The apoptotic effects in 2.2% (control), 6.5% (6a), 13.4% (6b), 29.2% (6c), 24.4% (6d), 6.5% (6e), 35.4% (6f), 13.6% (6g), 13.8% (6h), 14.8% (6i) and 6.4% (6j) of sub-G1 DNA peak were obtained (% represented the percentage of cell counts).

BCC cells [2] = assay: Determination of intracellular ROS level (DCFH-DA); details: BCC cells, 6f-UVA, DCFH-DA probe (FIG. 5A)
Description: (A) 6f-UVA induced ROS generation in BCC cells. Histogram of fluorescence vs cell count in BCC cells with various concentrations of 6f-UVA and stained with DCFH-DA. As a control, ROS was measured in the presence of catalase, a H2O2 scavenger. (B) The ΔΨmt of BCC cells after exposure to 6f-UVA. Cells were treated with 0, 2, and 4 μM Formula 6f for 4 h followed by 1 J/cm2 UVA irradiation, then stained with DiOC6 and analyzed immediately by flow cytometry as described under Materials and Methods. The number in M1 indicates the percentage of cells with reduced ΔΨmt. Approximately 10000 cells from each group were analyzed by flow cytometry. (C) Relative ATP levels were calculated as the percentage of the 0 μM level. Similar results were obtained in three independent experiments. *p<0.05, ** p<0.01 as compared with the control.
To evaluate intracellular reactive oxygen species (ROS) levels, 2′,7′-dichlorofluorescein diacetate (DCFH-DA, Molecular Probes) fluorescent dye was used to clarify this issue. The nonpolar DCFH-DA is converted to the polar derivative DCFH by esterases when it is taken up by the cell. DCFH is nonfluorescent but is rapidly oxidized to the highly fluorescent DCF by intracellular H2O2 or nitric oxide. […] The fluorescence of the samples was measured with a flow cytometer. The 2′,7′-dichlorofluorescein (DCF) data were recorded using FL-1 photomultiplier.

ERK = assay: Western blot analysis of MAPK phosphorylation: ERK; details: BCC cells, 6f-UVA at 4 μM, compared with untreated control (FIG. 6A)
Description: (§1) (A) After exposure to different concentration of 6f-UVA, cell lysates were collected and immunoblotted with specific antibodies as indicated. For the internal control, the same amounts of protein extract were also probed with antibody against actin. (B) As a control, the expression level of p-ERK was determined in the presence of oligomycin (25 μM) and ATP (1×10^−4M)
Total cell extracts from cultured BCC cells were obtained by lysing the cells in ice-cold RIPA buffer (1×PBS, 1% NP-40, 0.5% sodium deoxycholate, 0.1% SDS) containing 100 μg/mL PMSF, 2 μg/mL aprotinin, 2 μg/mL leupeptin and 100 μg/mL NaF. After centrifugation at 14,000 g for 30 min, protein in the supernatants was quantified by Bradford method (Bio-Rad). Forty micrograms of protein per lane was applied in 10% SDS-poly-acrylamide gel. After electrophoresis, protein was transferred from the gel to polyvinylidene difluoride (PVDF) membrane (Millipore, Bedford, Mass.). The membranes were blocked at room temperature for 1 h in PBS+0.1% Tween 20 (PBS-T) containing 5% skim milk. After being briefly rinsed with PBS-T, the blots were probed with respective primary antibodies at room temperature for 2 h or at 4° C. overnight. Rabbit polyclonal antibodies against JNK (46 kDa), p38 (38 kDa), ERK (42, 44 kDa), and mouse monoclonal antibody against p-JNK, p-p38, p-ERK were purchased from Santa Cruz Biotechnology (Santa Cruz, Calif.). Mouse monoclonal antibody against actin was purchased from Chemicon Int. Inc. (Temecula, Calif.). For the blocking test, 25 μM oligomycin (Sigma, a mitochondria-specific F0F1 ATP synthase inhibitor) or 1×10^−4M ATP (Sigma) was added to the media 30 min before treated with 6f-UVA, respectively. The membrane was incubated with the corresponding horseradish peroxidase-labeled secondary antibody (Santa Cruz Biotechnology) at room temperature for 1 h. […] The relative amounts of specific proteins were quantified by densitometry scanning of X-ray films and analyzed by Eagle Eye Image System (Stratagene, La Jolla, Calif.)

p38 = assay: Western blot analysis of MAPK phosphorylation: p38; details: BCC cells, 6f-UVA at 4 μM, compared with untreated control (FIG. 6A)
Description: as §1
Total cell extracts from cultured BCC cells were obtained by lysing the cells in ice-cold RIPA buffer (1×PBS, 1% NP-40, 0.5% sodium deoxycholate, 0.1% SDS) containing 100 μg/mL PMSF, 2 μg/mL aprotinin, 2 μg/mL leupeptin and 100 μg/mL NaF. After centrifugation at 14,000 g for 30 min, protein in the supernatants was quantified by Bradford method (Bio-Rad). Forty micrograms of protein per lane was applied in 10% SDS-poly-acrylamide gel. After electrophoresis, protein was transferred from the gel to polyvinylidene difluoride (PVDF) membrane (Millipore, Bedford, Mass.). The membranes were blocked at room temperature for 1 h in PBS+0.1% Tween 20 (PBS-T) containing 5% skim milk. After being briefly rinsed with PBS-T, the blots were probed with respective primary antibodies at room temperature for 2 h or at 4° C. overnight. […] The relative amounts of specific proteins were quantified by densitometry scanning of X-ray films and analyzed by Eagle Eye Image System (Stratagene, La Jolla, Calif.)

**Q.** `Nc1ccc(-c2nc3ccc(C(F)(F)F)cc3s2)cc1` [Formula 6f, 2-(4-Aminophenyl)-6-trifluoromethylbenzothiazole] was tested. Which “sub-G1 DNA peak (apoptotic effects, percentage of cell counts)” value (BCC cells [1]) did it give?
**A.** 35.4%

**Q.** What about the “intracellular H2O2 levels” value (BCC cells [2]) of the same compound?
**A.** significantly increased

**Q.** And the “phosphorylation of ERK (p-ERK)” value (ERK)?
**A.** increased

**Q.** What about the “phosphorylation of p38 (p-p38)” value (p38) of the same compound?
**A.** increased

Source: US8592603B2, “Synthesis of 2-(4-aminophenyl) benzothiazole derivatives and use thereof” (Kaohsiung Medical University, priority 2011, dated 2013)
